Experimental findings from patent publication US11179348B2, “Combination comprising pterostilbene for the treatment of cancer” (FUNDACIÓN UNIVERSIDAD CATÓLICA DE VALENCIA SAN VICENTE …, priority 2015, dated 2021) are described below.

For one experiment, the system named is PC-3 cells. Briefly: GSH levels and glutathione- and oxidative stress-related enzyme activities in PC-3 cells growing in vivo. Further details: species or system human. Conditions: PC-3, in vivo Pter, day 21. As to the method:
To measure enzyme activity, isolated tumor cells were homogenized in 0.1 M phosphate buffer (pH 7.2) at 4° C. GCL and GSS activities were measured as described previously (Obrador, E. et al. Hepatology 35, 74-81 (2002)). GPX (selenium dependent) activity was measured as described by Flohé and Gunzler (Flohe, L. & Gunzler, W. A. Methods Enzymol 105, 114-121 (1984)) using H2O2 as a substrate. GSR activity was determined as described by Akerboom and Sies (Akerboom, T. P. et al, Bull Eur Physiopathol Respir 17 Suppl, 221-227 (1981)). GGT activity was measured as described previously (Obrador, E. et al. Hepatology 35, 74-81 (2002)). GST activity was measured using an assay kit from Sigma. TXNRD activity, defined by the concentration of sodium-lipoate (disulfide) reduced to dehydrolipoate (dithiol) per milligram protein, was measured as previously described (Javvadi, P. et al. Cancer Res 70, 1941-1950 (2010)). SOD activity was measured as described by Flohé and Otting (Flohe, L. & Otting, F. Methods Enzymol 105, 93-104 (1984).) using 2 mM cyanide in the assay medium to distinguish mangano-type enzyme (SOD2) from the cuprozinc type (SOD1). CAT activity was analyzed as described by Aebi (Aebi, H. Methods Enzymol 105, 121-126 (1984)). NOX activity was measured by chemiluminescence following the methodology of Wind et al. (Wind, S. et al. Comparative pharmacology of chemically distinct NADPH oxidase inhibitors. Br J Pharmacol 161, 885-898 (2010)). Protein concentration was determined with the Pierce BCA protein assay (Fisher Scientific, Waltham, Mass.).
GSH, GSSG, NADP^+ and NADPH Determination.
GSH and GSSG were determined, following procedures previously described (Obrador, E. et al. PLoS One 9, e96466 (2014)), by LC/MS using the same equipment described above for pterostilbene determination. Cell processing was performed according to published methodology, where rapid N-ethylmaleimide derivatization was used to prevent GSH auto-oxidation (Asensi, M. et al. Anal Biochem 217, 323-328 (1994)). NADP^+ and NADPH were quantitated using an assay kit from Sigma (St. Louis, Mo.).
Isolation of Tumor Cells from Mouse Xenografts Using Enzymatic Digestion and a double Ficoll gradient.
To maximize the amount of isolated cells, avoiding the use of RFP-transfected cells and subsequent laser microdissection, an alternative methodology was set up. To maximize cell yield and viability the following combination of enzymes was used: collagenase III (200 U/ml; Sigma-Aldrich), DNase I (200 U/ml; Sigma-Aldrich) and trypsin (5 mg/ml; Invitrogen), and a non-enzymatic dissociation buffer (NEDB, Invitrogen). Briefly, mice were killed, and tumors were removed (avoiding skin, muscle and fat) into cold culture media and processed immediately. The tumors were minced into 1-3 mm fragments, which were then incubated with the dissociation solution (see above) for 30 min at 37° C. The tumor fragments were mixed up and down every 10 min using a […] micropipette with a tip cut to a diameter adapted to tissue fragment size. After each incubation period, the fragments were filtered through a […] nylon mesh cell strainer (BD Biosciences, San Diego, Calif., USA). The released cells were centrifuged at 1200 r.p.m. for 2 min and stored in cold CO2-independent medium with 30% FCS at […]. Fresh dissociation solution was added to the remaining tissue fragments for 30 min. Dissociation was stopped when no additional cells were released. The fragments were pushed through a sieve and all cells from all incubation periods were pooled and counted.
The dissociated cells were layered onto a double Ficoll gradient (Histopaque; Sigma-Aldrich; densities 1.077 and 1.119) and spun at 700 g for 30 min at room temperature. Cells removed from both interfaces were pooled and washed two times in CO2-independent medium and stored at 4° C. Debris and red blood cell elimination was improved with the dual-density gradient. […]

For a further experiment, the system named is B16-F1 cells. The experiment is described as follows: Effect of Pter on B16-F1 cell growth or viability in vitro. In kind it is cell-based, murine. Conditions: 15 μM Pter×60 min every 24 h. As to the method:
FIG. 14. In vivo effect of Pter on tumor growth (A) and on corticosterone (B) and ACTH (C) levels in plasma of murine B16-F1 melanoma-bearing mice. Pter (30 mg/kg) was administered i.v. every 24 h for a period of 15 days, starting 3 days after tumor inoculation.
Human A2058, MeWo and MelJuso melanoma cells, and mouse AtT-20 pituitary corticotroph tumor cells were from the American Type Culture Collection (ATCC). Human HEMa-LP epidermal melanocytes were from Life Technologies (Grand Island, N.Y.). Human MDA-MB-231 (triple negative: ER−, PR−, HER2−) and MCF-7 (ER+, PR+, HER2−) breast adenocarcinoma, A549 lung adenocarcinoma (NSCLC), HepG2 hepatocellular carcinoma, LNCaP (AR+) and PC-3 (AR−) prostate adenocarcinoma, SK-OV-3 epithelial ovarian carcinoma, and HT-29 and Caco-2 colorectal carcinoma cells were from the American Type Culture Collection. Cells were grown in Dulbecco's modified Eagle's medium (DMEM) (Invitrogen, San Diego, Calif.), pH 7.4, supplemented with 10% heat-inactivated FCS (Biochrom KG, Berlin, Germany), 100 units/ml penicillin and 100 μg/ml streptomycin. […] Cell numbers were determined using a Coulter Counter (Coulter Electronic Inc., Miami, Fla.). […] Cellular viability was assessed as previously reported (Mena, S. et al. Clin Cancer Res 13, 2658-2666 (2007)), by measuring trypan blue exclusion and leakage of lactate dehydrogenase activity.

Consider `COc1cc(/C=C/c2ccc(O)cc2)cc(OC)c1` [Pter, trans-3,5-dimethoxy-4′-hydroxystilbene], for which, in the experiment with PC-3 cells, the CAT is 0.3 ± 0.1 mU/10^6 cells, the GCL is listed as 27 ± 9 mU/10^6 cells, the GSH came to 2.4 ± 1.1 nmol/10^6 cells and the GSS stood at 2.7 ± 0.7 mU/10^6 cells. For the same compound, in the experiment on PC-3 cells, the GSSG is reported as 0.05 ± 0.02 nmol/10^6 cells, the SOD1 was 0.05 ± 0.01 U/10^6 cells and the SOD2 amounted to 0.01 ± 0.005 U/10^6 cells. Moreover, the “cell growth or viability in vitro” value with B16-F1 cells is “did not affect”.
